From patent US7696233B2, “Method for controlling particular insect pests by applying anthranilamide compounds” (E. I. du Pont de Nemours and Company, priority 2001, dated 2010)
Read-outs that look alike come from different tables or passages of the source. Each block holds one compound with its values, some of them ahead of it.

Key:
[1] = test system: thrips (Frankliniella sp.); assay: Test N: control of thrips, sprayed cotton or soybean plants; type: in vivo; conditions: sprayed at 10 ppm; four days after application
Description: For evaluating control of thrips (Frankliniella sp.), samples of the test compounds were dissolved in 1 mL of acetone. This solution was then diluted to 100 mL total volume using an aqueous 500 ppm solution of Ortho X-77™ surfactant. Serial dilutions were made to obtain 50 mL of 10 ppm concentration.
The diluted solutions of the test compounds were sprayed to run-off on three-week-old cotton or soybean plants infested with thrips. The plants were placed on a rotating turntable sprayer (10 rpm). Test solutions were applied using a flat fan air-assisted nozzle (Spraying Systems 122440) at 10 psi (69 kPa). Sprayed and dried plants were incased in a plastic cylinder. At four days after application the total number of dead thrips was recorded.

[2] = test system: Heliothis virescens (tobacco budworm); type: in vivo; conditions: 10 mL of 300 ppm, 0 equals no feeding
Description: Seventy-eight cotton plants were grown in the greenhouse with natural lighting in Sassafras soil in six inch pots. When six true leaves were on the plant (approximately 36 cm tall) the soil was drenched with a solution of Compound 497, 500, 530, 531 or 543. Each of the 5 compounds was dissolved in 2 mL of acetone, and distilled water was added to make 300 ppm solutions of each of the compounds. The pots were divided into six groups (13 plants/treatment), and 10 mL of each solution was applied over the soil surface of each group with one group left untreated. The plants were arranged in the greenhouse in a randomized block design. Each treatment was divided into three groups for sampling at 24, 48, and 96 hours.
Leaves were taken from the base and terminal of the plants. The leaves from the third node and the terminal leaves greater than 15 cm^2 were sampled per plant. One clipped leaf from each plant was cut into four pieces and each piece was placed into an well with one second-instar larvae of Heliothis virescens (tobacco budworm). Larval mortality (% M) was recorded 96 hours after sampling. The percentage of leaf feeding (% FF) was also recorded. Consumption of the leaf in the well was reported as 0-100% (0 equals no feeding).

[3] = test system: tobacco budworm (Heliothis virescens); assay: Test I: soil systemic control of tobacco budworm, cotton; type: in vivo; conditions: 10 ppm, 10 mL to pots weekly for four weeks
Description: For evaluating soil systemic control of tobacco budworm (Heliothis virescens), cotton plants were grown in sassafras soil in 15-cm pots in aluminum trays. When the plants reached square stage (bud formation on the plant) the plants were treated with the test compounds.
Test compounds were formulated in 0.25 mL of acetone and then diluted with water to provide solutions of 10 ppm. Ten mL of the treatment solutions was added to the pots weekly for four weeks, with four replicates of each treatment rate. One day after the second, third and fourth treatments, 35-50 first instar Heliothis virescens larvae were brushed on each plant with paintbrushes and placed on the terminal area, squares, and bolls. Five days after the last infestation with larvae the plants were rated for damage.

[4] = test system: Colorado potato beetle (Leptinotarsa decemlineata); assay: Test L: soil systemic control of Colorado potato beetle, tomato; type: in vivo; conditions: 5 ppm, 5 mL to soil; leaf excised after 4 days; mortality after four days
Description: For evaluating soil systemic control of Colorado potato beetle (Leptinotarsa decemlineata), transplanted tomato plants were grown in 6-cm pots for 5 days until they were at the two true leaf stage.
Test compounds were dissolved in 0.25 mL of acetone and diluted with water provide solutions of 5 ppm. Five mL of the appropriate test solution was applied by pipette to the surface of the soil in each pot, followed by 5 mL of water, with eight plants for each compound/rate. The pots were covered and held at 25° C. with 16 hours of light per day. The plants were watered the next day and each day following as needed. After 4 days, one leaf from each plant was excised and placed into a well of a test tray as described in Test H. One 5-day old Colorado potato beetle (Leptinotarsa decemlineata) was placed in each well, the tray was covered and then the test units were held at 25° C. with 16 hours of light per day. Mortality was observed after four days.

[5] = test system: southern fire ants (Solenopsis xyloni); assay: Test R: fire ant bait test; type: in vivo; conditions: fifty ants per cage
From the text: For evaluating control of fire ant (Solenopsis xyloni), Compound 531 was mixed with water and then mixed into a slurry with equal amounts (by weight) of Niban granular bait with no active ingredient (supplied by Nisus Corp.). The baits were uniformly sprinkled onto the sand substrate in each test cage. Fifty field-collected southern fire ants (Solenopsis xyloni) were then placed into each cage and provided water via a saturated cotton ball. The cages were held indoors with indirect sunlight and temperatures ranging from 22 to 31° C. Four test replicates were set up per rate. Evaluations were conducted at 1, 3, 7, 10, and 14 days after treatment (DAT) by counting and removing the killed ants found in each cage.

[6] = test system: German cockroaches (Blatella germanica); assay: Test Q: German cockroach bait test; type: in vivo; conditions: ten cockroaches per cage
Description: For evaluating german cockroach (Blatella germanica), Compound 531 was mixed with water, and then blended into a slurry with equal amounts (by weight) of peanut butter. Approximately 1 gram of bait was placed into each test cage. Ten German cockroaches (Blatella germanica) were then placed into each cage, and provided water via a saturated cotton ball. The cages were held indoors, with indirect sunlight, and temperatures ranging from 22 to 31° C. Four test replicates were set up per rate. Evaluations were conducted 1, 2, 3, 5, and 7 days after treatment (DAT) by counting and removing the killed roaches found in each cage.

[7] = base leaf sampled 24 h after drench
[8] = base leaf sampled 48 h after drench
[9] = base leaf sampled 96 h after drench
[10] = terminal leaf sampled 24 h after drench
[11] = terminal leaf sampled 48 h after drench
[12] = terminal leaf sampled 96 h after drench

melting point: 233 to 235 °C
SMILES: Cc1cccc(C(=O)NC(C)C)c1NC(=O)c1cc(C(F)(F)F)nn1-c1ncccc1C(F)(F)F

melting point: 205 to 207 °C
SMILES: CNC(=O)c1cc(Cl)cc(C)c1NC(=O)c1cc(Cl)nn1-c1ncccc1Cl

SMILES: CNC(=O)c1cc(Br)cc(C)c1NC(=O)c1cc(C(F)(F)F)nn1-c1ncccc1Cl [Compound 542]
mortality [1]: at least 90%

SMILES: CNC(=O)c1cc(Cl)cc(C)c1NC(=O)c1cc(C(F)(F)F)nn1-c1ncccc1Cl [Compound 500]
% FF (percentage of leaf feeding) [2, 7]: 80%
% FF (percentage of leaf feeding) [2, 8]: 80%
% FF (percentage of leaf feeding) [2, 9]: 30%
% FF (percentage of leaf feeding) [2, 10]: 60%
% FF (percentage of leaf feeding) [2, 11]: 60%
% FF (percentage of leaf feeding) [2, 12]: 30%

SMILES: Cc1cc(Cl)cc(C(=O)NC(C)C)c1NC(=O)c1cc(Br)nn1-c1ncccc1Cl [Compound 530]
% FF (percentage of leaf feeding) [2, 7]: 80%
% FF (percentage of leaf feeding) [2, 8]: 50%
% FF (percentage of leaf feeding) [2, 9]: 5%
% FF (percentage of leaf feeding) [2, 10]: 50%
% FF (percentage of leaf feeding) [2, 11]: 20%
% FF (percentage of leaf feeding) [2, 12]: 5%

SMILES: Cc1cccc(C(=O)NC(C)C)c1NC(=O)c1cc(C(F)(F)F)nn1-c1ncccc1Cl [Compound 214]
protection of squares and bolls [3]: excellent protection of squares and boils including no or minimal sepal damage
mortality and feeding inhibition [4]: excellent levels of mortality and feeding inhibition

melting point: 200 to 204 °C
SMILES: CCn1nc(C(F)(F)F)cc1NC(=O)c1c(C)cccc1C(=O)NC(C)C

SMILES: Cc1cc(Br)cc(C(=O)NC(C)C)c1NC(=O)c1cc(Br)nn1-c1ncccc1Cl [Compound 520]
protection of squares and bolls [3]: excellent protection of squares and boils including no or minimal sepal damage

SMILES: Cc1cccc(C(=O)NC(C)C)c1NC(=O)c1cc(Br)nn1-c1ncccc1Cl [Compound 283]
protection of squares and bolls [3]: excellent protection of squares and boils including no or minimal sepal damage

SMILES: CNC(=O)c1cc(Cl)cc(C)c1NC(=O)c1cc(Br)nn1-c1ncccc1Cl [Compound 531]
% FF (percentage of leaf feeding) [2, 7]: 60%
% FF (percentage of leaf feeding) [2, 8]: 80%
% FF (percentage of leaf feeding) [2, 9]: 10%
% FF (percentage of leaf feeding) [2, 10]: 40%
% FF (percentage of leaf feeding) [2, 11]: 40%
% FF (percentage of leaf feeding) [2, 12]: 10%
Average of Killed Fire Ants ([5]; granular bait 400 ppm, 1 DAT): 0.5
Average of Killed Fire Ants ([5]; granular bait 400 ppm, 3 DAT): 1.3
Average of Killed Fire Ants ([5]; granular bait 400 ppm, 7 DAT): 40.5
Average of Killed Fire Ants ([5]; granular bait 400 ppm, 10 DAT): 50
Average of Killed Fire Ants ([5]; granular bait 400 ppm, 14 DAT): 50
Average of Killed Fire Ants ([5]; granular bait 2,000 ppm, 1 DAT): 1
Average of Killed Fire Ants ([5]; granular bait 2,000 ppm, 3 DAT): 2
Average of Killed Fire Ants ([5]; granular bait 2,000 ppm, 7 DAT): 43
Average of Killed Fire Ants ([5]; granular bait 2,000 ppm, 10 DAT): 49.8
Average of Killed Fire Ants ([5]; granular bait 2,000 ppm, 14 DAT): 50
Average of Killed Fire Ants ([5]; granular bait 10,000 ppm, 1 DAT): 0
Average of Killed Fire Ants ([5]; granular bait 10,000 ppm, 3 DAT): 2.3
Average of Killed Fire Ants ([5]; granular bait 10,000 ppm, 7 DAT): 42.8
Average of Killed Fire Ants ([5]; granular bait 10,000 ppm, 10 DAT): 50
Average of Killed Fire Ants ([5]; granular bait 10,000 ppm, 14 DAT): 50
Average of Killed Cockroaches ([6]; peanut butter bait 400 ppm, 1 DAT): 3.8
Average of Killed Cockroaches ([6]; peanut butter bait 400 ppm, 2 DAT): 5.8
Average of Killed Cockroaches ([6]; peanut butter bait 400 ppm, 3 DAT): 6.3
Average of Killed Cockroaches ([6]; peanut butter bait 400 ppm, 5 DAT): 7
Average of Killed Cockroaches ([6]; peanut butter bait 400 ppm, 7 DAT): 7
Average of Killed Cockroaches ([6]; peanut butter bait 2000 ppm, 1 DAT): 6.3
Average of Killed Cockroaches ([6]; peanut butter bait 2000 ppm, 2 DAT): 8
Average of Killed Cockroaches ([6]; peanut butter bait 2000 ppm, 3 DAT): 8.8
Average of Killed Cockroaches ([6]; peanut butter bait 2000 ppm, 5 DAT): 9
Average of Killed Cockroaches ([6]; peanut butter bait 2000 ppm, 7 DAT): 9
Average of Killed Cockroaches ([6]; peanut butter bait 10000 ppm, 1 DAT): 9.5
Average of Killed Cockroaches ([6]; peanut butter bait 10000 ppm, 2 DAT): 9.5
Average of Killed Cockroaches ([6]; peanut butter bait 10000 ppm, 3 DAT): 9.5
Average of Killed Cockroaches ([6]; peanut butter bait 10000 ppm, 5 DAT): 9.5
Average of Killed Cockroaches ([6]; peanut butter bait 10000 ppm, 7 DAT): 9.5

melting point: 215 to 217 °C
SMILES: CNC(=O)c1cc(Cl)cc(C)c1NC(=O)c1cc(OCC(F)(F)F)nn1-c1ncccc1Cl

SMILES: Cc1cc(Cl)cc(C(=O)NC(C)C)c1NC(=O)c1cc(Cl)nn1-c1ncccc1Cl [Compound 543]
% FF (percentage of leaf feeding) [2, 7]: 30%
% FF (percentage of leaf feeding) [2, 8]: 30%
% FF (percentage of leaf feeding) [2, 9]: 5%
% FF (percentage of leaf feeding) [2, 10]: 20%
% FF (percentage of leaf feeding) [2, 11]: 20%
% FF (percentage of leaf feeding) [2, 12]: 5%

SMILES: Cc1cc(Cl)cc(C(=O)NC(C)C)c1NC(=O)c1cc(C(F)(F)F)nn1-c1ncccc1Cl [Compound 497]
% FF (percentage of leaf feeding) [2, 7]: 80%
% FF (percentage of leaf feeding) [2, 8]: 100%
% FF (percentage of leaf feeding) [2, 9]: 20%
% FF (percentage of leaf feeding) [2, 10]: 50%
% FF (percentage of leaf feeding) [2, 11]: 50%
% FF (percentage of leaf feeding) [2, 12]: 10%
